Reference: PMC8286840, “Identifying SARS-CoV-2 antiviral compounds by screening for small molecule inhibitors of Nsp3 papain-like protease” (Biochemical Journal, 2021)
Counter-ions that a name gives are not always drawn. Like-named read-outs stand apart in the source and are kept apart here. Where a SMILES comes first, the peptide text is derived from it.

Tests used:
[1] = biological target: T1, SARS-CoV-2 PLpro (nsp3 1564–1878) (Severe acute respiratory syndrome coronavirus 2, UniProt P0DTD1); assay: biochemical; design: FRET-quenched peptide (Pro3) cleavage by PLpro, 10 min pre-incubation, slope over 20 min, normalised to no-compound control; conditions: low concentration screen, read-out: % of control remaining
[2] = biological target: T1, SARS-CoV-2 PLpro (nsp3 1564–1878); assay: biochemical; design: FRET-quenched peptide (Pro3) cleavage by PLpro, 10 min pre-incubation, slope over 20 min, normalised to no-compound control; conditions: high concentration screen, read-out: % of control remaining

## COC(=O)N1CCN(C(=O)Cc2ccc(Cl)c(Cl)c2)C(CN2CCCC2)C1 (stereo not shown) [GR-89696 fumarate]
[1]; Well no.=462
  remaining activity at 1.25 µM: 101%
[2]; Well no.=462
  remaining activity at 3.75 µM: 99.8%

## CC1CNC(=O)NC1=O (stereo not shown) [Dihydrothymine]
[1]; Well no.=8392
  remaining activity at 1.25 µM: 100%
[2]; Well no.=8392
  remaining activity at 3.75 µM: 92.8%

## CNC1(C)C2CCC(C2)C1(C)C (stereo not shown) [Mecamylamine hydrochloride]
[1]; Well no.=987
  remaining activity at 1.25 µM: 98.1%
[2]; Well no.=987
  remaining activity at 3.75 µM: 99.8%

## COc1ccc(-c2ccc(=N)n(CCCC(=O)O)n2)cc1 [SR-95531]
[1]; Well no.=1325
  remaining activity at 1.25 µM: 103%
[2]; Well no.=1325
  remaining activity at 3.75 µM: 98.9%

## C=C(C)[C@@H]1CC[C@]2(C(=O)O)CC[C@]3(C)[C@H](CC[C@@H]4[C@@]5(C)CC[C@H](O)C(C)(C)[C@@H]5CC[C@]43C)[C@@H]12 [Betulinic acid]
[1]; Well no.=3089
  remaining activity at 1.25 µM: 102%
[1]; Well no.=6646
  remaining activity at 1.25 µM: 105%
[2]; Well no.=3089
  remaining activity at 3.75 µM: 101%
[2]; Well no.=6646
  remaining activity at 3.75 µM: 100%

## CCCc1nn(C)c2c(=O)[nH]c(-c3cc(S(=O)(=O)N4CCN(C)CC4)ccc3OCC)nc12 [Sildenafil Mesylate]
[1]; Well no.=8206
  remaining activity at 1.25 µM: 106%
[2]; Well no.=8206
  remaining activity at 3.75 µM: 103%

## O=c1c(-c2ccc(O)cc2)coc2cc(O)cc(O)c12 [Genistein - 5,7-Dihydroxy-3-(4-hydroxyphenyl)-4H-1-benzopyran-4-one]
[1]; Well no.=2342
  remaining activity at 1.25 µM: 95.4%
[2]; Well no.=2342
  remaining activity at 3.75 µM: 95.4%

## O=C1c2cccc3c2[C@H](CCC3)CN1[C@@H]1CN2CCC1CC2 [Palonosetron (Hydrochloride)]
[1]; Well no.=6614
  remaining activity at 1.25 µM: 98.5%
[2]; Well no.=6614
  remaining activity at 3.75 µM: 98%

## COc1cccc(-c2cc(=O)c3ccccc3o2)c1N [PD 98059]
[1]; Well no.=2600
  remaining activity at 1.25 µM: 94.8%
[2]; Well no.=2600
  remaining activity at 3.75 µM: 92%

## COc1ccc2c(c1)CC[C@@H]1[C@@H]2CC[C@]2(C)[C@@H](NCCCCCCN3C(=O)C=CC3=O)CC[C@@H]12 [U-73122 hydrate]
[1]; Well no.=5562
  remaining activity at 1.25 µM: 93%
[2]; Well no.=5562
  remaining activity at 3.75 µM: 93.8%

## CCOc1cc(CC(=O)N[C@@H](CC(C)C)c2ccccc2N2CCCCC2)ccc1C(=O)O [Repaglinide]
[1]; Well no.=4817
  remaining activity at 1.25 µM: 101%
[2]; Well no.=4817
  remaining activity at 3.75 µM: 95.8%

## CN1CCN(c2cccc(Nc3nc4c(-c5ccc(S(C)(=O)=O)cc5)cccn4n3)c2)CC1 [CEP33779]
[1]; Well no.=5129
  remaining activity at 1.25 µM: 104%
[2]; Well no.=5129
  remaining activity at 3.75 µM: 106%

## C=CC(=O)Nc1cccc(Oc2nc(Nc3ccc(N4CCN(C)CC4)cc3)ncc2Cl)c1 [WZ3146]
[1]; Well no.=4711
  remaining activity at 1.25 µM: 103%
[2]; Well no.=4711
  remaining activity at 3.75 µM: 106%

## CCN(CC)C(C)C(=O)N1c2ccccc2Sc2ccccc21 (stereo not drawn) [10-(alpha-Diethylaminopropionyl)-phenothiazine hydrochloride]
[1]; Well no.=531
  remaining activity at 1.25 µM: 104%
[2]; Well no.=531
  remaining activity at 3.75 µM: 99.7%

## CC(C)(C)[C@]1(O)C[C@@H]2OC(=O)C[C@@]23C(=O)O[C@@H]2OC(=O)[C@H](O)[C@]213 [Bilobalide]
[1]; Well no.=3091
  remaining activity at 1.25 µM: 105%
[2]; Well no.=3091
  remaining activity at 3.75 µM: 105%

## COc1ccnc2[nH]cc(C(=O)C(=O)N3CCN(C(=O)c4ccccc4)C[C@H]3C)c12 [BMS-378806]
[1]; Well no.=8420
  remaining activity at 1.25 µM: 96.7%
[2]; Well no.=8420
  remaining activity at 3.75 µM: 94.2%

## CNc1cccc(NC(=O)N[C@@H]2N=C(c3ccccn3)c3ccccc3N(CC(=O)C(C)(C)C)C2=O)c1 [Sograzepide]
[1]; Well no.=8322
  remaining activity at 1.25 µM: 94.5%
[2]; Well no.=8322
  remaining activity at 3.75 µM: 93%

## CCCC[C@@H](C)[C@@H](OC(=O)C[C@@H](CC(=O)O)C(=O)O)[C@H](C[C@@H](C)CCCCCC[C@@H](O)C[C@H](O)[C@H](C)N)OC(=O)C[C@@H](CC(=O)O)C(=O)O [Fumonisin B2]
[1]; Well no.=3285
  remaining activity at 1.25 µM: 95.4%
[2]; Well no.=3285
  remaining activity at 3.75 µM: 95.7%

## NC(N)=NCCC[C@H](N)C(=O)NCC(=O)N[C@@H](CC(=O)O)C(=O)N[C@@H](CS)C(=O)O [Arg-Gly-Asp-Cys] (H-RGDC-OH)
[1]; Well no.=8126
  remaining activity at 1.25 µM: 99.2%
[2]; Well no.=8126
  remaining activity at 3.75 µM: 97.3%

## FC(F)(F)c1ccc(CNc2ccc(Cc3c[nH]c4ncccc34)cn2)cc1 [5-((1H-pyrrolo[2,3-b]pyridin-3-yl)methyl)-N-(4-(trifluoromethyl)benzyl)pyridin-2-amine]
[1]; Well no.=6012
  remaining activity at 1.25 µM: 104%
[2]; Well no.=6012
  remaining activity at 3.75 µM: 102%

## COc1cc(OC)c2cc(-c3ccncc3)cnc2c1 [DMPQ dihydrochloride]
[1]; Well no.=5933
  remaining activity at 1.25 µM: 100%
[2]; Well no.=5933
  remaining activity at 3.75 µM: 98.1%

## Oc1ccc(OC2CCCCO2)cc1 (stereo not shown) [Deoxyarbutin]
[1]; Well no.=5166
  remaining activity at 1.25 µM: 103%
[2]; Well no.=5166
  remaining activity at 3.75 µM: 101%

## COc1cc(Oc2ccnc3cc(OC)c(OC)cc23)ccc1NC(=O)NC(C)c1nccs1 (stereo not shown) [Ki20227]
[1]; Well no.=2935
  remaining activity at 1.25 µM: 98.2%
[2]; Well no.=2935
  remaining activity at 3.75 µM: 102%

## Cn1cc(-c2ccc3ncc(Cc4ccc5ncccc5c4)n3n2)cn1 [NVP-BVU972]
[1]; Well no.=4930
  remaining activity at 1.25 µM: 98.1%
[2]; Well no.=4930
  remaining activity at 3.75 µM: 92.3%

## Nc1nc2[nH]cc(CCc3ccc(C(=O)N[C@@H](CCC(=O)O)C(=O)O)cc3)c2c(=O)[nH]1 [Pemetrexed Disodium Hydrate]
[1]; Well no.=8732
  remaining activity at 1.25 µM: 96.6%
[2]; Well no.=8732
  remaining activity at 3.75 µM: 97.8%

## COc1ccc(S(=O)(=O)Nc2cc(Cl)cc(Cl)c2OC)cc1N1CCNCC1 [N-(3,5-dichloro-2-methoxyphenyl)-4-methoxy-3-(piperazin-1-yl)benzenesulfonamide hydrochloride]
[1]; Well no.=5561
  remaining activity at 1.25 µM: 97.1%
[2]; Well no.=5561
  remaining activity at 3.75 µM: 103%

## COC(=O)c1cc2c(cn1)[nH]c1ccccc12 [Methyl beta-carboline-3-carboxylate]
[1]; Well no.=607
  remaining activity at 1.25 µM: 95.4%
[2]; Well no.=607
  remaining activity at 3.75 µM: 98.2%

## COc1ncc(-c2nc3c(n2C(C)C)[C@H](c2ccc(Cl)cc2)N(c2cc(Cl)cn(C)c2=O)C3=O)c(OC)n1 [Siremadlin]
[1]; Well no.=6788
  remaining activity at 1.25 µM: 97.9%
[2]; Well no.=6788
  remaining activity at 3.75 µM: 89.6%

## CCn1c(=O)c2[nH]c(-c3ccccc3)nc2n(CC)c1=O [1,3-Diethyl-8-phenylxanthine]
[1]; Well no.=204
  remaining activity at 1.25 µM: 98.5%
[2]; Well no.=204
  remaining activity at 3.75 µM: 100%

## CCCCc1oc2ccccc2c1C(=O)c1cc(I)c(OCCN(CC)CC)c(I)c1 [Amiodarone.HCl]
[1]; Well no.=1591
  remaining activity at 1.25 µM: 104%
[2]; Well no.=1591
  remaining activity at 3.75 µM: 103%

## O=C(O)Cc1ccccc1Nc1c(Cl)cccc1Cl [Diclofenac sodium]
[1]; Well no.=580
  remaining activity at 1.25 µM: 94%
[2]; Well no.=580
  remaining activity at 3.75 µM: 96.6%

## Nc1nc(=O)n([C@@H]2CS[C@H](CO)O2)cc1F [Emtricitabine]
[1]; Well no.=1733
  remaining activity at 1.25 µM: 100%
[2]; Well no.=1733
  remaining activity at 3.75 µM: 100%

## CN1C(=O)C[C@H](C(=O)O)[C@H]1c1cccnc1 [Trans-4-Cotininecarboxylic acid]
[1]; Well no.=3200
  remaining activity at 1.25 µM: 95.4%
[2]; Well no.=3200
  remaining activity at 3.75 µM: 97.7%

## C[N+](C)(C)CCOC(N)=O [Carbamoylcholine (chloride)]
[1]; Well no.=6757
  remaining activity at 1.25 µM: 99.9%
[2]; Well no.=6757
  remaining activity at 3.75 µM: 97.3%
